≈ marks a conversion by molar mass, not a printed value.

The text below walks through data of patent publication US20230192748A1 (DoubleRainbow Biosciences Inc., priority 2020, published 2023).

For series [1] the following is noted: distilled water, 25° C.
Protocol: (§1) Afterwards, each sample was centrifuged at 12,000×g for 20 min. The supernatant of each sample was then filtered through a 0.45-μm membrane filter and the concentration of the compound in the supernatant, which is defined as the water-soluble component, was measured by its absorbance at 254 nm using HPLC, and its absolute solubility was calculated in reference to the concentration-absorbance standard curve.
In series [2] the test system is etoposide-resistant cell line. To be noted: cited from earlier work.
For series [3] the following is noted: cited from earlier work.
The conditions of series [4]: etoposide phosphate plus cisplatin; cited from earlier work.
A short description of a further series: physchem. The note with it: distilled water, 25 °C, thermodynamic from solid.
For series [5] the following is noted: in vivo; cited from earlier work.
For series [6], the system named is blood plasma proteins (primarily albumin). The note with it: cited from earlier work.
For series [7] the following is noted: aqueous solutions, 80° C., pH 5; cited from earlier work.

Protocol for physchem: as §1

For `COc1cc(C2c3cc4c(cc3C(OC3OC5COC(C)OC5C(OC5OC(CO)C(O)C(O)C5O)C3O)C3COC(=O)C23)OCO4)cc(OC)c1O` (stereo not drawn), the “water solubility relative to etoposide” value in series [1] came to 200 times.
Take `COc1cc([C@@H]2c3cc4c(cc3[C@@H](O[C@@H]3O[C@@H]5CO[C@@H](C)O[C@H]5[C@H](O)[C@H]3O)[C@H]3COC(=O)[C@H]23)OCO4)cc(OC)c1OC(=O)OCC1COC(C)(C)O1` (stereo partly drawn) [CAP7.1]: in series [2], the “concentrations cytotoxic to an etoposide-resistant cell line” value was “nanomolar concentrations”.
For the compound `COc1cc([C@@H]2c3cc4c(cc3[C@@H](O[C@@H]3O[C@@H]5CO[C@@H](C)O[C@H]5[C@H](O)[C@H]3O)[C@H]3COC(=O)[C@H]23)OCO4)cc(OC)c1OP(=O)(O)O` [Etoposide phosphate], the aqueous solubility in series [3] is 20000 µg/mL. Moreover, the “difference in PK/PD parameters or overall response rate versus etoposide plus cisplatin” value in series [4] was “no statistically significant difference”.
For the compound `COc1cc([C@@H]2c3cc4c(cc3[C@@H](O[C@@H]3O[C@@H]5CO[C@@H](C)O[C@H]5[C@H](O)[C@H]3O)[C@H]3COC(=O)[C@H]23)OCO4)cc(OC)c1O` [etoposide, Etoposide], in series [3] (37° C.), the “solubility in aqueous solutions” value was 150 to 170 µg/mL. The compound also yielded a solubility at 12 h in “physchem” of 56 µg/mL (≈ 95.1 µM). For the same compound, the half-life in series [5] was 4 to 11 h. Moreover, the “bound to blood plasma proteins” value in series [6] was 97%. The half life in series [7] is 0.643 h.

In general, aqueous solubility refers to how much of the substance goes into solution per volume. Broadly, the solubility is how much of the substance goes into solution per volume. Usually half-life stands for how long it takes for the measured level to halve.
